From PubChem BioAssay (NCI)
“And” between values parts separate entries of the source, which are not always exact repeats. Equal entries are not always repeated.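 How tested: cells in 96-well plates exposed to compound for 48 hours at five concentrations. The concentration for 50% growth inhibition is given as GI50. TGI marks complete inhibition of growth.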

Tests used:
Assay in all cases: NCI anticancer screen, dose series, 48 h
[1] = test system: A549 NSCLC
[2] = test system: HL-60(TB) leukemia
[3] = test system: MOLT-4 leukemia
[4] = test system: NCI-H226 lung
[5] = test system: NCI-H460 lung
[6] = test system: NCI-H522 lung
[7] = test system: SK-MEL-5 melanoma
[8] = test system: SK-OV-3 ovarian
[9] = test system: UACC-62 melanoma
[10] = test system: RXF 393 renal

Row | SMILES | TGI [1] | TGI [2] | TGI [3] | TGI [4] | TGI [5] | TGI [6] | TGI [7] | TGI [8] | TGI [9] | GI50 [1] | GI50 [2] | GI50 [3] | GI50 [4] | GI50 [5] | GI50 [6] | GI50 [10] | TGI [10] | GI50 [7] | GI50 [8] | GI50 [9]
1 | CC#CC#C/C(=C/C=CC(=O)OC)SC | > 100 µM | > 100 µM | > 100 µM | > 100 µM | > 100 µM | > 100 µM | > 100 µM | > 100 µM | > 100 µM |  |  |  |  |  |  |  |  |  |  | 
2 | CCN(CC)C(=O)CC12CCCCC1=Nc1ccccc12 (centres undefined) | > 100 µM | > 100 µM | > 100 µM |  | > 100 µM |  | > 100 µM | > 100 µM | > 100 µM |  |  |  |  |  |  |  |  |  |  | 
3 | COc1cc2c(cc1-c1coc3cc(O)ccc3c1=O)OCO2 | 77.4 µM | > 100 µM | > 100 µM | 40.2 µM | 32 µM | 36.2 µM | > 100 µM | 37.3 µM | 63.9 µM |  |  |  |  |  |  |  |  |  |  | 
4 | COc1ccc2nc3ccccc3c(NCCN(CCCl)CCCl)c2c1 | 10.7 µM | 1.1 µM | 0.758 µM | 4.74 µM |  | 1.75 µM |  | 5.05 µM | 2.3 µM |  |  |  |  |  |  |  |  |  |  | 
5 | CCN(/N=C1\CC2C=CCN(C2)C(=O)Cc2c1[nH]c1ccccc21)S(=O)(=O)c1ccc(C)cc1 (centres undefined) | > 100 µM | > 100 µM | > 100 µM | 38.6 µM |  | > 100 µM | > 100 µM |  | > 100 µM |  |  |  |  |  |  |  |  |  |  | 
6 | COc1cc(N2CCC(N)CC2)ccc1Nc1ncc(Cl)c(-c2c[nH]c3ccccc23)n1 | 1.65 µM | 2.75 µM | 4.86 µM | 3.59 µM | 1.66 µM | 1.85 µM | 2.84 µM | 2.8 µM |  | 248 nM | 41.2 nM | 1400 nM | 334 nM | 235 nM | 447 nM | 338 nM | 1.41 µM | 1490 nM | 680 nM | 
7 | COC(=O)[C@]12CC[C@@H](C)[C@H](C)[C@@H]1C1=CC[C@@H]3[C@@](C)(CC#N)C4=C(C[C@@]3(C)[C@]1(C)CC2)OC[C@]4(C)C=O | 25 µM | 6.77 µM | 6.89 µM | 43.7 µM | 28 µM | 46.9 µM | 11 µM | 62.6 µM |  | 10200 nM | 3030 nM | 2100 nM | 8510 nM | 10500 nM | 14700 nM | 12000 nM | 36.1 µM | 3300 nM | 4920 nM | 
8 | CCn1ncc(N=O)c1N | > 100 µM |  | > 100 µM |  | > 100 µM | > 100 µM | > 100 µM |  | > 100 µM |  |  |  |  |  |  |  |  |  |  | 
9 | O=C1c2ccc3c4c(ccc(c24)C(=O)N1CCNCc1ccccc1)C(=O)N(CCNCc1ccccc1)C3=O | 8.77 µM | 4.91 µM | > 100 µM |  | 4.26 µM |  | 2.68 µM | 45.4 µM | 3.35 µM | 1870 nM | 2090 nM | 3960 nM |  | 1800 nM |  | 1410 nM | 4.21 µM | 1390 nM | 20900 nM | 1740 nM
10 | CN1C2(c3ccccc3)C(C(=O)c3ccccc3)=C(C(=O)c3ccccc3)C1(c1ccccc1)c1c(-c3ccccc3)sc(-c3ccccc3)c12 | > 100 µM | > 100 µM |  | > 100 µM | > 100 µM | > 100 µM | > 100 µM | > 100 µM | > 100 µM |  |  |  |  |  |  |  | > 100 µM |  |  | 
11 | COC1C(=O)CCC2(CO2)C1(O)C1(C)OC1CC=C(C)C (centres undefined) | > 100 µM |  | 83.2 µM |  | > 100 µM |  | 83.9 µM | > 100 µM | 80.8 µM |  |  |  |  |  |  |  | > 100 µM |  |  | 
12 | COc1cc(CC(=O)O)c([N+](=O)[O-])cc1OC | > 100 µM | > 100 µM | > 100 µM | > 100 µM | > 100 µM | > 100 µM |  | > 100 µM | > 100 µM |  |  |  |  |  |  |  | > 100 µM |  |  | 
13 | CC(=O)O[C@@H]1CC[C@@]2(C)C(=O)C34C[C@@]5(C)C([C@@H](C)CCCC(C)C)CCC5(C)[C@](O)(O3)C(=O)[C@H]4C2C1(C)C (some centres undefined) | 29.1 µM | 25.3 µM | 28.8 µM | 29.6 µM | 18.5 µM | 25.5 µM | 28.4 µM | 32.4 µM | 32.6 µM |  |  |  |  |  |  |  |  |  |  | 
14 | COC(=O)Nc1nc2ccc(C(=O)c3ccc(F)cc3)cc2[nH]1 | > 100 µM | 0.608 µM |  | 3.23 µM | > 100 µM |  | > 24.2 µM | 11.2 µM | 17.8 µM | 468 nM | 107 nM |  | 464 nM | 336 nM | 311 nM | 763 nM | > 100 µM | 242 nM | 510 nM | 199 nM
15 | N#CCCN(c1ccc(C=O)cc1)S(=O)(=O)c1ccccc1 | > 100 µM | > 100 µM | > 100 µM | > 100 µM | > 100 µM | > 100 µM | > 100 µM | > 100 µM | > 100 µM |  |  |  |  |  |  |  |  |  |  | 
16 | CCCCCCCCCC[C@H](O)[C@H]1CC[C@@H]([C@@H](O)CC[C@H](O)[C@@H]2CCC(CCCCCCC[C@@H](O)CC3=C[C@H](C)OC3=O)O2)O1 (some centres undefined) | 18.5 µM | 4.95 µM |  | 6.43 µM and 36 µM | 17.2 µM | 18 µM | 3.48 µM and 3.24 µM |  | 3.13 µM | 2890 nM |  |  | 8540 nM | 1150 nM |  |  | 19.8 µM |  |  | 
17 | COc1ccc([C@@H]2OC(=O)C3C2C(=O)O[C@H]3c2ccc(OC)cc2)cc1 (some centres undefined) | > 100 µM | > 100 µM | > 100 µM |  | > 100 µM |  |  | > 100 µM | > 100 µM |  |  |  |  |  |  |  | > 100 µM |  |  | 
18 | COC(=O)c1c2c(c(C)[n+]([O-])c1C)C(=O)C(NCc1ccc(O)cc1)=CC2=O | 4.6 µM | 5.69 µM |  | 4.36 µM | 3.35 µM | 3.49 µM | 2.59 µM |  | 2.97 µM | 1930 nM | 2460 nM |  | 2060 nM | 1580 nM | 1430 nM | 1500 nM | 2.98 µM | 1270 nM |  | 1360 nM
19 | O=C(CC(=O)c1cccc([N+](=O)[O-])c1)C(=O)Nc1ccccc1 | > 100 µM | > 100 µM | > 100 µM | > 100 µM | > 100 µM | > 100 µM | > 100 µM |  | > 100 µM |  |  |  |  |  |  |  | > 100 µM |  |  | 
20 | CC(C)C1=CC2=C(C(=O)C1=O)C13CCCC(C)(C)C1CC2OC3=O (centres undefined) | > 100 µM | 36.3 µM | 32.7 µM | 49.2 µM | 71.9 µM | 30.6 µM | 55.1 µM | > 100 µM | 27.4 µM |  |  |  |  |  |  |  |  |  |  | 
